{"source": "patent US20100093667A1", "about": "“SALTS OF HIV INHIBITOR COMPOUNDS” (Gilead Sciences, Inc., priority 2008, published 2010)", "test_system": "HIV-1 IIIB", "test": "Anti-HIV-1 activity in MT-2 cells, virus-induced cytopathic effect (CellTiter-Glo)", "type": "cell-based", "description": "MT-2 cells were maintained in RPMI-1640 medium supplemented with antibiotics and 10% fetal bovine serum (FBS). MT-2 cells were infected with HIV-1 IIIB at a multiplicity of infection (moi) of 0.01 and added to 96-well plates with serial dilutions of tested compounds at a density of 20,000 cells/well. […] Activity against NRTI-resistant mutants was determined in parallel with wild-type control virus and fold change in EC50 was calculated."}
{"smiles": "CCOC(=O)[C@H](C)N[P@](=O)(CO[C@@H]1C=C(F)[C@H](n2cnc3c(N)ncnc32)O1)Oc1ccccc1", "note": "(single isomer, unassigned) [Prodrug]", "values": [{"measurement": "EC50", "setting": "Human immunodeficiency virus 1, MT2, 120 h, MT-2 cells, HIV-1 IIIB, 5-day incubation, mean ± SD", "value": "150 ± 40", "unit": "nM"}, {"measurement": "more potent than the parent compound", "setting": "MT-2", "value": 71, "unit": "fold"}]}
